Measurements: PMC10721329, “Quisinostat is a brain-penetrant radiosensitizer in glioblastoma” (JCI Insight, 2023)
Several values for one entry are separate records, joined by “and”; a condition that tells them apart may be missing. Equal entries are not always repeated.

What was measured:
[1] = test system: histone H3 acetylation (H3K9/14ac); test: H3K9/14ac immunoblot of normal brain tissue; type: in vivo, athymic nude mice; details: QST 10 mg/kg IP MWF 2 weeks, individual mice
Protocol: Insufficient drug exposure in the brain is a major hurdle in the treatment of brain tumors. […] On the last treatment day, blood and intact brains were harvested 2 hours after dosing with QST (Figure 6E). […] Each brain hemisphere was processed separately to perform matched PK and PD analyses from the same animal. […] For PD analyses, we homogenized entire hemispheres to obtain whole-tissue protein lysates from each mouse and assessed changes in histone H3 acetylation levels using immunoblotting.
Cellular protein from cultured cells was homogenized in radioimmunoprecipitation assay (RIPA) lysis buffer containing protease and phosphatase inhibitors (ThermoFisher Scientific), rotated at 4 °C for 20 minutes and then centrifuged at 15,000 rpm for 10 minutes at 4 °C. For histone extractions, benzonase (0.1 U/μL) was added in RIPA buffer (Millipore-Sigma, 70746-4). Protein concentrations from whole-cell extracts were determined using the Bradford Protein Assay (ThermoFisher Scientific). Equal amounts of protein (10-40 μg/lane) were loaded onto 10% or 12.5% sodium dodecyl sulfate–polyacrylamide gel electrophoresis gels and transferred to a polyvinylidene fluoride membrane (Millipore-Sigma). […]

[2] = Stability in mouse brain homogenate (perfused, non-perfused) at 37°C; type: in vitro ADME; details: 100 nM; for [QST], % of control: mouse brain homogenate, 37 C; for [QST], % of control / raw response (Data Point): replicates; for %stability ([QST], % of control, Mean) / raw response, Mean / raw response (Data Point): mouse brain, 37C
Protocol: Hydroxamic acid–based compounds have been reported to display poor stability and high plasma clearance due to the presence of arylesterases and carboxylesterases in rodent blood ([34]). Therefore, we measured the stability of QST in mouse plasma and brain to determine whether drug degradation occurred during our sample preparations and equilibrium dialyses for the determination of unbound drug level (performed at 37°C). […] QST degradation was also observed in mouse brain homogenate (Figure 6B). However, perfusion of mice before brain collection prevented rapid drug degradation in the brain matrix. […] Degradation of QST can also be constrained if plasma and brain samples are processed at 4°C (Supplemental Figure 4A). All subsequent sample preparations were therefore performed on ice-cold baths to avoid degradation of QST in our PK analyses. […] The observed stability is probably due to the absence of esterases in human matrices, which are responsible for degradation of QST ([34]). Because we employed QST in several in vitro studies (Figures 1–4), the stability of the molecule was also tested in the cell media used to culture GSCs (neurobasal medium; see Methods).
Stability Study in Mouse Plasma, Mouse Brain, Human Plasma, Human Brain, and Neural […]
The stability of QST was determined in BALB/c mouse plasma, male nude athymic perfused and nonperfused mouse brain homogenate (1:9 w/v of PBS; pH 7.4), human brain (obtained from VRL Eurofins) homogenate (1:4 w/v of PBS; pH 7.4), pooled human plasma (Innovative Research), and neurobasal media. QST stock solutions (1 mM) were prepared in acetonitrile, subsequently diluted in a 40% methanol mixture, and added t o the matrices to make final concentrations of 100 nM or 10 nM. Then 50 or 30 µL of either plasma or brain homogenate containing QST were aliquoted into 1.5-mL microcentrifuge tubes (Eppendorf) and were incubated at either 4 °C or 37 °C for 0, 2, 4, 6, 12, or 24 hours (n = 3 at each time point). […]
Plasma and brain […]
homogenate samples were stored at −80 °C until LC-MS/MS analysis. […]

## Cn1cc(CNCC2CCN(c3ncc(C(=O)NO)cn3)CC2)c2ccccc21 [QST, quisinostat]
[1]
  H3K9/14ac levels normalized to B-actin (fold change): 2.1642 and 2.588 and 3.2892 and 1.999 and 1.763
[2]; Non-Perfused, 0 hours
  [QST], % of control: 99.9% and 101.4% and 98.8%
[2]; Non-Perfused, 2 hours
  [QST], % of control: 90.9% and 101.4% and 87.2%
[2]; Non-Perfused, 6 hours
  [QST], % of control: 71.4% and 72.9% and 80.4%
[2]; Non-Perfused, 24 hours
  [QST], % of control: 46.8% and 49% and 47.5%
[2]; Perfused, 0 hours
  [QST], % of control: 103.7% and 102.4% and 93.9%
[2]; Perfused, 2 hours
  [QST], % of control: 98.2% and 99.9%
[2]; Perfused, 6 hours
  [QST], % of control: 98.2% and 97.3%
[2]; Perfused, 24 hours
  [QST], % of control: 85.9% (2×) and 82.9%
[2]; Non-perfused, 0 hrs
  %stability ([QST], % of control, Mean): 100.0%
  raw response, Mean: 267333
  raw response (Data Point): 267000 and 271000 and 264000
[2]; Non-perfused, 2 hrs
  %stability ([QST], % of control, Mean): 93.1%
  raw response, Mean: 249000
  raw response (Data Point): 243000 and 271000 and 233000
[2]; Non-perfused, 6 hrs
  %stability ([QST], % of control, Mean): 74.9%
  raw response, Mean: 200333
  raw response (Data Point): 191000 and 195000 and 215000
[2]; Non-perfused, 24 hrs
  %stability ([QST], % of control, Mean): 47.8%
  raw response, Mean: 127667
  raw response (Data Point): 125000 and 131000 and 127000
[2]; Perfused, 0 hrs
  %stability ([QST], % of control, Mean): 100.0%
  raw response, Mean: 236333
  raw response (Data Point): 245000 and 242000 and 222000
[2]; Perfused, 2 hrs
  %stability ([QST], % of control, Mean): 98.7%
  raw response, Mean: 233333
  raw response (Data Point): 232000 and 236000
[2]; Perfused, 6 hrs
  %stability ([QST], % of control, Mean): 97.6%
  raw response, Mean: 230667
  raw response (Data Point): 232000 and 230000
[2]; Perfused, 24 hrs
  %stability ([QST], % of control, Mean): 84.9%
  raw response, Mean: 200667
  raw response (Data Point): 203000 and 196000
